How the values were obtained:
[1] = system: normal and L-NAME-treated female rats; assay: Heart rate by telemetry after oral citrulline in normal and L-NAME-treated female rats; type: in vivo, rat
Procedure: (§1) FIG. 3: The effect of a single administration of citrulline on the heart rate in normal and L-NAME-treated female rats. Intact female rats chronically instrumented with telemetric transducers allowing continuous monitoring of heart rate were subcutaneously implanted with osmotic mini-pumps releasing 50 mg/day L-NAME or 0.9% saline (controls). 24 hours after the pump insertion, the animals received 70 mg/rat citrulline orally per gavage. The heart rate was monitored for an additional 24 hours following citrulline treatment. N=5/group
At this time there was also a pronounced increase in heart rate in the L-NAME-treated rats (to 400-450 times/minute). Following a single oral citrulline (70 mg) administration, there was a rapid and very pronounced (p<0.05) decrease in heart rate to approximately 100 times/minute reaching a plateau already 1 hour after treatment. […] The effects of citrulline sustained for 24 hours in both treatment and control groups of citrulline treatment.

[2] = system: normal and L-NAME-treated female rats; assay: Systolic blood pressure by telemetry after oral citrulline in normal and L-NAME-treated female rats; type: in vivo, rat; conditions: for decrease in blood pressure: 70 mg/rat at 24 h and 140 mg/rat at 48 h after pump insertion
Procedure: as §1, with “FIG. 1:” for “FIG. 3:”, “the systolic blood pressure” for “the heart rate”, “of blood pressure” for “of heart rate”, “were subcutaneusly” for “were subcutaneously”, “The systolic blood pressure” for “The heart rate”, “treatment. N=5/group.” for “treatment. N=5/group”
(§2) FIG. 2: The effect of multiple administration of citrulline on the systolic blood pressure in normal and L-NAME-treated female rats. Intact female rats chronically instrumented with telemetric transducers allowing continuous monitoring of blood pressure were subcutaneously implanted with osmotic mini-pumps releasing 50 mg/day L-NAME or vehicle (controls). 24 and 48 hours after the pump insertion, the animals received 70 and 140 mg/rat citrulline orally per gavage. The systolic blood pressure was monitored for an additional 24 hours following the second citrulline treatment. N=5/group
However, the systolic BP started to raise 4 hours after citrulline treatment.
In the experiment which results are presented in FIG. 2, the animals were treated twice with citrulline, i.e. 24 hours (70 mg/rat) and 48 after the start of L-NAME infusion. Similarly to FIG. 1, the first administration of citrulline was performed when the animals became hypertensive following L-NAME infusion.

[3] = system: normal and L-NAME-treated female rats; assay: Observation of side-effects of citrulline administration in the rat experiments; type: in vivo; conditions: oral 70 or 140 mg/rat, any experiment
Procedure: as §1, with “FIG. 1:” for “FIG. 3:”, “the systolic blood pressure” for “the heart rate”, “of blood pressure” for “of heart rate”, “were subcutaneusly” for “were subcutaneously”, “The systolic blood pressure” for “The heart rate”, “treatment. N=5/group.” for “treatment. N=5/group”
as §2
FIG. 3: The effect of a single administration of citrulline on the heart rate in normal and L-NAME-treated female rats. […] The heart rate was monitored for an additional 24 hours following citrulline treatment. […]

[4] = female rats, 50 mg/day L-NAME by subcutaneous osmotic mini-pump, before citrulline
[5] = control female rats infused with vehicle, single oral 70 mg citrulline

Compound	heart rate 24 hours after start of L-NAME infusion [1, 4]	blood pressure effect 24 hours after start of L-NAME infusion [2, 4]	time to plateau of heart rate decrease after treatment ([1]; L-NAME-treated female rats, single oral 70 mg citrulline) [h]	heart rate after treatment ([1]; L-NAME-treated female rats, single oral 70 mg citrulline 24 h after start of L-NAME infusion, p<0.05)	duration of the effects on heart rate ([1]; both treatment (L-NAME) and control groups, single oral 70 mg citrulline) [h]	change in heart rate [1, 5]	side-effects of citrulline administration [3]	effect of second dose of 140 mg on blood pressure compared with first dose of 70 mg ([2]; L-NAME- and vehicle-treated female rats, multiple oral administration)	change in systolic blood pressure ([2]; L-NAME-treated (50 mg/day, osmotic mini-pump) female rats, single oral 70 mg citrulline 24 h after start of L-NAME infusion, N=5/group)	decrease in blood pressure ([2]; L-NAME-treated female rats, multiple oral administration)	change in blood pressure [2, 5]	time after treatment at which systolic BP started to rise [2, 5] [h]	hypertension and increase in heart rate induced by NOS inhibition with L-NAME ([2]; female rats, citrulline administered orally, overall conclusion)	decrease in blood pressure ([2]; vehicle-treated female rats, multiple oral administration)
COC(=O)[C@@H](N)CCCNC(=N)N[N+](=O)[O-] [L-NAME, N^G-nitro-L-arginine methyl ester, reference compound]	400-450 times/minute	substantial hypertension	–	–	–	–	–	–	–	–	–	–	–	–
NC(=O)NCCC[C@H](N)C(=O)O [citrulline]	–	–	1	approximately 100 times/minute	24	reduced heart rate	No side-effects	slightly more effective	rapid and significant (p<0.05) decrease in systolic blood pressure	30-40%	reduced blood pressure	4	partially attenuated	30-40%

From patent US20010056068A1, “METHOD OF TREATMENT AND PREVENTION OF NITRIC OXIDE DEFICIENCY-RELATED DISORDERS WITH CITRULLINE AND CITRULLINE DERIVATIVES” (priority 1998, published 2001)
